Data published in US20070065805A1, “Cell migration assay” (GE Healthcare Bio-Sciences Corp., priority 2005, published 2007).
Entries after “also recorded” stand apart in the source; their conditions may differ.

Experiments:
[1] = test system: neutrophil TEM; test: Neutrophil transendothelial migration (TEM) assay, 96-well collagen gel/HUVEC monolayer; assay type: cell-based, human; settings: for Inhibition of neutrophil TEM: neutrophil pre-treated with inhibitor (1, 10-phenathronoline 12-1000 μM) for 0.5 hour, inhibitor present throughout the TEM assay, migrated cells counted at Z: 60 μm (FIG. 10)
Protocol: (§1) A 96-well plate (ViewPlate™, PerkinElmer Life and Analytical Sciences) was set on ice and 40 μl of gel (2.5 mg/ml) was dispensed into each well using stepper repeat pipette (500 or 1000 tip). The plate was spun at 1,500 rpm for 2 min at 4° C. The gel was solidified at 37° C. in a CO2-free incubator to establish a thick layer (200 μm) of collagen gel onto a well of 96-well plate. The following TEM assays were performed using collagen gel prepared in this manner.
The layer of collagen gel in each well was coated with 200 μl of 1 μg/ml human fibronectin (BD Biosciences) in serum-free EGM-2 medium for 1 hour at room temperature. After removal of the fibronectin containing-medium, HUVEC cells (CAMBREX) were seeded onto the gel and cultured in the EGM-2 medium for 3 days, at 37° C., and at a concentration of 40,000 cells/well. The cells were chosen from early passage (3rd to 4th), 70-80% confluent HUVEC cell cultures. The day before the assay, the HUVEC culture medium was replaced with either fresh EGM-2 medium alone, or the fresh EGM-2 medium containing 10 ng/ml IL-1 β (or TNF-α, or other chemoattractants). The mixture was incubated overnight to stimulate TEM.
Neutrophil or peripheral blood mononuclear cells (PBMC) were freshly isolated from blood Buffy coat. Briefly, RBC were removed using dextran sedimentation. Then PBMC were isolated by Ficoll-Hypaque centrifugation. Neutrophils were purified by hypotonic lysis of remaining RBC in the pellet of Ficoll-Hypaque centrifugation. The cells were labelled with CellTracker™ Green, by incubation in 0.5 to 1 μm dye in RPMI for 45 min at 37° C. The dye containing RPMI was removed and the cells washed once with serum-free RPMI medium. The cells were re-suspended in RPMI containing 0.2% HAS (assay medium) at 2.5×10^6 cells/ml.
On the assay day, the culture medium for the HUVEC cell culture was removed and the HUVEC monolayer washed 2 times with PBS and once with assay medium (0.2% of HAS in RPMI). 500,000 (200 μl) neutrophil or PBMC, which were CellTracker™ Green labelled, were placed on top of the HUVEC monolayer in each well. The assay was incubated further at 37° C. The length of time for the incubation is primary cell type dependent. For neutrophil, incubation time is within 2 hours and for PBMC, from 6 to 10 hours may be required.
After the required incubation time, images of neutrophil/PBMC cells which had migrated below the HUVEC layer were acquired. Often, it is sufficient to acquire images at a single Z position and quantify the number of migrated cells in the gel at targeted Z position. As an example, images at the 120 μm Z plane were quantified using the Z-slicing feature of IN Cell Analyzer 3000 (GE Healthcare). Images were analysed using the Object Intensity analysis module. The experiments were repeated multiple times, such that each data point—in the Figures—represents mean plus/minus standard deviation of 6 replicate wells, one Z plane of image/well.
Prior to the TEM assay, neutrophil were pre-treated with 1, 10-phenathronoline, a MMP-9 inhibitor (12-1000 μM) for 0.5 hour. The inhibitor was continuously present throughout the TEM assay. […] Each data point in FIG. 10 represents mean plus/minus SD of 6 replicate wells, one image/well at Z: 60 μm.

[2] = test system: PBMC TEM; test: PBMC transendothelial migration (TEM) assay, 96-well collagen gel/HUVEC monolayer; assay type: cell-based, human; settings: HUVEC incubated overnight with 10 ng/ml IL-1 β
Protocol: as §1
The layer of collagen gel in each well was coated with 200 μl of 1 μg/ml human fibronectin (BD Biosciences) in serum-free EGM-2 medium for 1 hour at room temperature. After removal of the fibronectin containing-medium, HUVEC cells (CAMBREX) were seeded onto the gel and cultured in the EGM-2 medium for 3 days, at 37° C., and at a concentration of 40,000 cells/well. The cells were chosen from early passage (3rd to 4th), 70-80% confluent HUVEC cell cultures. […]
After the required incubation time, images of neutrophil/PBMC cells which had migrated below the HUVEC layer were acquired. Often, it is sufficient to acquire images at a single Z position and quantify the number of migrated cells in the gel at targeted Z position. As an example, images at the 120 μm Z plane were quantified using the Z-slicing feature of IN Cell Analyzer 3000 (GE Healthcare). Images were analysed using the Object Intensity analysis module. […]

In the case of Interleukin-8 [IL-8], the “Effect of IL-8 soaking on neutrophil TEM” value ([1]; collagen gel pre-soaked with culture medium containing IL-8 at 200 ng/ml for 4 hours) was “increase of neutrophil TEM; also recorded: generates a TEM effect similar to that of IL-1 β activation of HUVEC”.
With `c1cnc2c(c1)ccc1cccnc12` [1, 10-phenathronoline, reference compound] the “Inhibition of neutrophil TEM” value [1] was “inhibits neutrophil TEM; also recorded: Inhibition of neutrophil TEM”.
For `C[C@H]1c2cccc(O)c2C(O)=C2C(=O)[C@]3(O)C(O)=C(C(N)=O)C(=O)[C@@H](N(C)C)[C@@H]3[C@@H](O)[C@@H]21` [doxycyclin, reference compound], the “Inhibition of neutrophil TEM” value [1] was “showed to inhibit TEM”.
Interleukin-1-beta [IL-1β] was tested, and the “Stimulation of PBMC TEM” value [2] was “potentiate transendothelial migration of both cell types”, the “Stimulation of neutrophil TEM” value ([1]; HUVEC incubated overnight with 10 ng/ml IL-1 β) was “potentiate transendothelial migration of both cell types” and the “Time for neutrophil TEM to reach a significant signal to noise ratio (IL-1β stimulated vs. non-stimulated)” value ([1]; migrated cells quantified at Z: 120 μm, FIG. 7) was 0.5 to 2 h.
